This is an account of results in PMC10379010, “Short Peptides of Innate Immunity Protein Tag7 (PGLYRP1) Selectively Induce Inhibition or Activation of Tumor Cell Death via TNF Receptor” (International Journal of Molecular Sciences, 2023).

Where a SMILES comes first, the peptide text is derived from it.

Series [1] concerns K562 cells (killed by cytotoxic CD4+-T lymphocytes). Kind of series: Inhibition of the cytotoxic activity of CD4+-T lymphocytes. The format is cell-based. Particulars: K562 cells preincubated with peptide 30 min (1 nM), then cytotoxic lymphocytes, ratio 1:20, 24 h; Cytotox 96; n = 5. The procedure:
Figure 5 (a) The peptides were biotinylated and added to cells of the K562 line, followed by incubation for 1 h. Next, the peptides were cross-linked with Hsp70 on the cell surface with BS^3 reagent (Sigma-Aldrich, St. Louis, MO, USA). After stopping the reaction, the cells were lysed in RIP-A (Sigma-Aldrich, St. Louis, MO, USA) buffer in the presence of protease inhibitors. The lysate was purified by magnetic separation on M280 Streptavidin Beads. The obtained fractions containing 17.1A-Hsp70 and 17.1B-Hsp70 were analyzed using 12% SDS-PAGE electrophoresis and Western blot. Complexes were detected using primary antibodies abHsp70 poly-AT and secondary antibodies anti-rabbit peroxidase-linked (ECL). (b) Tumor cells of the K562 line were preincubated with peptides 17.1, 17.1A and 17.1B for 30 min., and then cytotoxic lymphocytes were added and cytotoxic activity was determined (24 h incubation), n = 5 for each point, (* p-value < 0.05). […]
For the cytotoxicity tests, target cells were cultured in 96-well plates (6 × 10^4 cells per well) and mixed with lymphocytes at a ratio of 1:20. The cytotoxicity was measured after 24 h of incubation. […] The cytotoxic activity of the lymphocytes was determined using the Cytotox 96 analysis kit (Promega, Madison, WI, USA) in accordance with the manufacturer’s protocol.

Another series addresses T1, Hsp70 (Homo sapiens, UniProt P0DMV8).
T1 construct: made in house
Kind of series: Microscale thermophoresis, binding to labeled Hsp70. The note with it: labeled Hsp70 200 nM, 16 ligand concentrations, 20 min, room temperature, triplicate, average ± SD, read-out: Apparent dissociation constant (Kd) with Hsp70. From the text:
(§1) Protein–protein interactions of sTNFR1 and Hsp70 with the peptides 17.1, 17.1A and 17.1B and the Tag7 protein were quantified using microscale thermophoresis (MST). This biophysical method is based on the movement of molecules in a temperature gradient, which strongly depends on the charge, the hydration shell and the size of the moving molecules. At least one of these qualities usually changes during the formation of the complex. Therefore, thermophoresis provides a sensitive and reliable method for analyzing and quantifying protein–protein interactions. […] The obtained constants indicate a highly specific interaction of Tag7, 17.1 and 17.1A with sTNFR1. Similarly, clear changes in the thermophoretic signal were observed when Tag7, 17.1 and 17.1B were added to the labeled Hsp70. […]
(§2) The purified sTNFR1 and Hsp70 were fluorescently labeled using the Alexa Fluor 633 or Alexa Fluor 488 staining kit (Eugene, OR, USA) in accordance with the manufacturer’s instructions. sTNFR1 and Hsp70 (200 nM) were incubated for 20 min with each compound in the dark at room temperature at 16 different concentrations obtained by sequential dilution, starting from the highest soluble concentration. The samples were loaded into glass capillaries (Monolith NT Capillaries) and analyzed by thermophoresis using Nano-Temperature Monolith NT 115 apparatus (IR laser power 10%). […]
For orientation: Microscale thermophoresis detects binding through changes in fluorescence in a small temperature gradient.

The test system of series [2] is L929 cells (TNFR1-induced cytotoxicity). The series is described as follows: Inhibition of TNFR1-dependent cytotoxicity, L929 cells. The class given is cell-based, mouse. Particulars: 24 h, peptide added 30 min before TNF (1 nM), only at peptide concentration of 100 nM, n = 5. The procedure:
Figure 2 Cells (HL-60 (a–d) or L-929 (e,f)) were preincubated with peptide 17.1A (a,b) or 17.1B (c–f) for 30 min, and then a cytotoxic agent (TNF, Tag7-Hsp70 complex or autoantibodies) was added and cytotoxic activity was then determined after 3 (a,c,e) or 24 h (b,d,f) of cell incubation. n = 5 for each group). (* p-value < 0.05).
(L929 cells, 24 h of incubation, peptides were added 30 min before incubation with TNF (1 nM)) n = 5 for each point.
For the cytotoxicity tests, target cells were cultured in 96-well plates (6 × 10^4 cells per well) and mixed with lymphocytes at a ratio of 1:20. The cytotoxicity was measured after 24 h of incubation. The inhibition test was performed with peptides 17.1, 17.1A and 17.1B at a concentration of 1 nM. The cytotoxic activity of the lymphocytes was determined using the Cytotox 96 analysis kit (Promega, Madison, WI, USA) in accordance with the manufacturer’s protocol.

The next series addresses T2, sTNFR1 (Homo sapiens, UniProt P19438).
T2 construct: the soluble extracellular domain of its receptor (sTNFR1); made in house
T2 sequence (P19438 30-211 limits assumed): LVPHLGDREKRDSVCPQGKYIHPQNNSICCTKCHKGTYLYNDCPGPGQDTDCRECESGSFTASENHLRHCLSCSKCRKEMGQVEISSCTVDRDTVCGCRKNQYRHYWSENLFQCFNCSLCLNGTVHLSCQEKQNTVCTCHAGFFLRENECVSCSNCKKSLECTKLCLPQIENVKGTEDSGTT
Kind of series: Microscale thermophoresis, binding to labeled sTNFR1. Particulars: labeled sTNFR1 200 nM, 16 ligand concentrations, 20 min, room temperature, triplicate, average ± SD, read-out: Apparent dissociation constant (Kd) with sTNFR1.
Source text: as §1, §2

T1 sequence (P0DMV8 whole entry): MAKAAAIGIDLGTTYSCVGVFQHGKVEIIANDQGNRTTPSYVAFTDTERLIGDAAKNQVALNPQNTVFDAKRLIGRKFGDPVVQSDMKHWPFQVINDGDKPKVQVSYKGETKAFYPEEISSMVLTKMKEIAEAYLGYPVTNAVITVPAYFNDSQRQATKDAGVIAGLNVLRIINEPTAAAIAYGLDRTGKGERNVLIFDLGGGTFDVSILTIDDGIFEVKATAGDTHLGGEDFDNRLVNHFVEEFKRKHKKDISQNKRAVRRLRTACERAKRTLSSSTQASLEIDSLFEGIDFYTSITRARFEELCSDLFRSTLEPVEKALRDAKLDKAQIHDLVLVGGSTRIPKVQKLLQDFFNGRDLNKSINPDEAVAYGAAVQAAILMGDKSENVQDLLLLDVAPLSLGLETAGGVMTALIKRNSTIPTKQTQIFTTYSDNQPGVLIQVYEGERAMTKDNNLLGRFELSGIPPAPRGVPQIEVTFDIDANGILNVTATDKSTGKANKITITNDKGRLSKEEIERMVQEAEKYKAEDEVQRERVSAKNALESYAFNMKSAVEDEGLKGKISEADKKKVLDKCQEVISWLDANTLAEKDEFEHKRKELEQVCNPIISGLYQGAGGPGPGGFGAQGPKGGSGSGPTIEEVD

As for `CC(C)[C@H](NC(=O)[C@H](CC(=O)O)NC(=O)[C@H](CCCNC(=N)N)NC(=O)[C@@H](N)Cc1c[nH]cn1)C(=O)N[C@@H](CCC(N)=O)C(=O)N[C@@H](CCCNC(=N)N)C(=O)N[C@H](C(=O)O)[C@@H](C)O` [17.1A, HRDVQRT] (H-HRDVQRT-OH), the “Effect on the cytotoxic activity of CD4+-T lymphocytes” value in series [1] was “no effect on cell death”. For the same compound, on Hsp70, the Kd amounted to 0.222 ± 0.015 µM.

For `CC(C)C[C@H](NC(=O)[C@@H](NC(=O)[C@H](Cc1ccc(O)cc1)NC(=O)[C@H](CC(N)=O)NC(=O)[C@H](CO)NC(=O)[C@@H](N)CCCNC(=N)N)C(C)C)C(=O)N[C@@H](CCCCN)C(=O)NCC(=O)O` [17.1B, RSNYVLKG] (H-RSNYVLKG-OH), the “Inhibitory effect on TNF cytotoxic activity at 100 nM” value in series [2] is on record as “weak inhibitory effect”. Besides, the “Effect on the cytotoxic activity of CD4+-T lymphocytes” value in series [1] is recorded as “completely block the cytotoxic effect of lymphocytes”. Also, the Kd at Hsp70 turned out to be 0.00315 ± 0.0007 µM; on sTNFR1, 6.69 ± 0.12 µM.
